Measured values from patent US20020137929A1, “1 - (3-heterocyclylphenyl) isothiourea, -isourea, -guanidine and -amidine herbicidal agents” (Intellectual Property Department, BASF Aktiengesellschaft, priority 1998, published 2002).

Tests used:
ECHCG (Barnyardgrass) = test: Preemergence herbicidal evaluation; type: in vivo, Echinochloa crus-galli; details: rated 4-5 weeks after treatment, rating scale 0-9
How it was run: (§1)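 Sown cups got a single aqueous acetone spray of test compound (roughly 0.0156–0.500 kg/ha) before seedlings emerged. Evaluation, 4–5 weeks on, used a 0–9 visual scale covering plant stand, vigor, size, malformation, chlorosis and general appearance compared with controls.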

SETVI (Foxtail, Green) [1] = test: Preemergence herbicidal evaluation; type: in vivo, Setaria viridis; details: rated 4-5 weeks after treatment, rating scale 0-9
How it was run: as §1

ORYSAT (Rice, Tebonnet) = test: Postemergence herbicidal evaluation; type: in vivo, Oryza sativa, (L.) Tebonnet; details: postemergence
How it was run: (§2)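 First, seedlings were raised for around two weeks. Next, test material in 50/50 acetone/water containing 0.5% TWEEN 20 was sprayed through a nozzle at 40 psi, equivalent to about 0.0156–0.500 kg/ha. Finally, after 4–5 weeks in the greenhouse, plants were rated 0–9.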

[2] = tested on: TRZAWR (Wheat, Winter, cv Riband); test: Preemergence herbicidal evaluation; type: in vivo, Triticum aestivum; details: rated 4-5 weeks after treatment, rating scale 0-9
Text: (§3) Results of herbicide evaluation are expressed on a rating scale (0-9). The scale is based upon a visual observation of plant stand, vigor, malformation, size, chlorosis and overall plant appearance as compared with a control.
(§4) The preemergence herbicidal activity of the test compounds of the present invention is exemplified by the following tests in which the seeds of a variety of monocotyledonous and dicotyledonous plants are separately mixed with potting soil and planted on top of approximately one inch of soil in separate pint cups. After planting, the cups are sprayed with the selected aqueous acetone solution containing test compound in sufficient quantity to provide the equivalent of about 0.0156 to 0.500 kg per hectare of test compound per cup. The treated cups are then placed on greenhouse benches, watered and cared for in accordance with conventional greenhouse procedures. From four to five weeks after treatment, the tests are terminated and each cup is examined and rated according to the rating system provided in Example 37.
(§5) The compounds evaluated are reported by compound number given in Example 37.

ZEAMX (Corn, Field) [3] = test: Preemergence herbicidal evaluation; type: in vivo, Zea mays; details: rated 4-5 weeks after treatment, rating scale 0-9
Text: as §3, §4, §5

CYPIR (Rice Flatsedge) = test: Preemergence weed control under flooded paddy conditions; type: in vivo, Cyperus iria; details: 0.2500 kg/ha, rated 3-4 weeks after treatment
How it was run: (§6)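 Ratings on a 0-9 visual scale cover stand, vigor, malformation, size, chlorosis and overall appearance relative to a control, taken three to four weeks post-treatment. Application was into flood water over freshly sown silt loam at roughly 0.0313 to 0.500 kg/ha.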

SETVI (Foxtail, Green) [4] = test: Postemergence herbicidal evaluation; type: in vivo, Setaria viridis; details: postemergence
How it was run: as §2

[5] = tested on: ECHORC (Watergrass (Calif.)); test: Preemergence weed control under flooded paddy conditions; type: in vivo, Echinochloa oryzoides; details: 0.2500 kg/ha, rated 3-4 weeks after treatment
How it was run: as §6

ZEAMX (Corn, Field) [6] = test: Postemergence herbicidal evaluation; type: in vivo, Zea mays; details: postemergence
How it was run: as §2

Structure (SMILES)	Preemergence herbicidal rating ECHCG (ECHCG (Barnyardgrass); rate 0.1250 kg/ha)	Preemergence herbicidal rating ECHCG (ECHCG (Barnyardgrass); rate 0.2500 kg/ha)	Preemergence herbicidal rating SETVI (SETVI (Foxtail, Green) [1]; rate 0.1250 kg/ha)	Preemergence herbicidal rating SETVI (SETVI (Foxtail, Green) [1]; rate 0.2500 kg/ha)	herbicidal rating ORYSAT (ORYSAT (Rice, Tebonnet); rate 0.0156 kg/ha)	herbicidal rating ORYSAT (ORYSAT (Rice, Tebonnet); rate 0.0313 kg/ha)	herbicidal rating ORYSAT (ORYSAT (Rice, Tebonnet); rate 0.0625 kg/ha)	Preemergence herbicidal rating TRZAWR ([2]; rate 0.1250 kg/ha)	Preemergence herbicidal rating TRZAWR ([2]; rate 0.2500 kg/ha)	Preemergence herbicidal rating ZEAMX (ZEAMX (Corn, Field) [3]; rate 0.1250 kg/ha)	Preemergence herbicidal rating ZEAMX (ZEAMX (Corn, Field) [3]; rate 0.2500 kg/ha)	herbicidal effect rating, CYPIR (CYPIR (Rice Flatsedge))	herbicidal rating SETVI (SETVI (Foxtail, Green) [4]; rate 0.0156 kg/ha)	herbicidal rating SETVI (SETVI (Foxtail, Green) [4]; rate 0.0313 kg/ha)	herbicidal rating SETVI (SETVI (Foxtail, Green) [4]; rate 0.0625 kg/ha)	herbicidal effect rating, ECHORC [5]	herbicidal rating ZEAMX (ZEAMX (Corn, Field) [6]; rate 0.0156 kg/ha)	herbicidal rating ZEAMX (ZEAMX (Corn, Field) [6]; rate 0.0313 kg/ha)	herbicidal rating ZEAMX (ZEAMX (Corn, Field) [6]; rate 0.0625 kg/ha)	also measured
COc1ccc(CN2C(=O)CSC2=Nc2cc(-n3c(=O)cc(C(F)(F)F)n(C)c3=O)c(F)cc2Cl)cc1OC [Compound 134, 3-{4-Chloro-5-{[3-(3,4-dimethoxybenzyl)-4-oxo-2-thiazolidinylidene]amino}-2-fluorophenyl}-1-methyl-6-(trifluoromethyl)-2,4(1H,3H)-pyrimidinedione]	0.0	0.0	0.0	2.0	1.0	1.5	2.0	0.0	0.0	0.0	0.0	3.0	0.0	0.0	1.0	2.0	3.5	4.5	4.5	–
CSCCN1C(=O)CSC1=Nc1cc(-n2c(=O)cc(C(F)(F)F)n(C)c2=O)c(F)cc1Cl [Compound 157]	1.0	0.0	2.0	1.0	2.0	2.5	3.0	0.0	0.0	1.0	1.0	0.0	0.0	1.0	7.0	0.0	7.0	7.0	7.0	Preemergence herbicidal rating ECHCG (ECHCG (Barnyardgrass); rate 0.0313 kg/ha): 0.0; Preemergence herbicidal rating ECHCG (ECHCG (Barnyardgrass); rate 0.0625 kg/ha): 0.0; Preemergence herbicidal rating SETVI (SETVI (Foxtail, Green) [1]; rate 0.0313 kg/ha): 0.0; Preemergence herbicidal rating SETVI (SETVI (Foxtail, Green) [1]; rate 0.0625 kg/ha): 0.0; Preemergence herbicidal rating TRZAWR ([2]; rate 0.0313 kg/ha): 0.0; Preemergence herbicidal rating TRZAWR ([2]; rate 0.0625 kg/ha): 0.0; Preemergence herbicidal rating ZEAMX (ZEAMX (Corn, Field) [3]; rate 0.0313 kg/ha): 0.0; Preemergence herbicidal rating ZEAMX (ZEAMX (Corn, Field) [3]; rate 0.0625 kg/ha): 0.0
